The results in this text go back to patent US20220227762A1, “AMIDE-SUBSTITUTED IMIDAZO COMPOUNDS AS SELECTIVE INHIBITORS OF INDOLEAMINE 2,3-DIOXYGENASES” (BEIGENE, LTD., priority 2019, published 2022).

Like-named read-outs stand apart in the source and are kept apart here.

In series [1] the target is T1, IDO1 (Homo sapiens, UniProt P14902).
T1 construct: endogenous in cells; host or cells: HeLa cells (American Type Culture Collection), induced with human recombinant IFN-γ
Nature of the series: HeLa Cell-Based IDO1 Kyn (Kynurenine) Production Assay. As to the method: HeLa Cell-Based IDO1 Kyn (Kynurenine) Production Assay:
The inhibitory activity of IDO1 inhibitors is determined by using a colorimetric reaction to measure Kyn generated from L-Trp (L-Tryptophon) oxidation by cellular IDO1 in HeLa cells after induction of IDO1 expression by IFN-γ. Hela cells were obtained from the American Type Culture Collection and recovered in 10% FBS-containing phenol red-free DMEM medium. Cells were plated onto a 96-well plate (100 μl/well) at 8000 cells per well and kept at 37° C. in a humidified incubator supplied with 5% CO2. 4 hours later, Human recombinant IFN-γ (8901SC, CST) was added to cells (final concentration 100 ng/mL) to stimulate endogenous IDO1. Compounds at different concentrations diluted in dimethylsulfoxide (DMSO) were added simultaneously with IFN-γ and 0.4 mM L-Trp. Cells were kept at 37° C. in a humidified incubator supplied with 5% CO2. After 48 hours of incubation, 100 μl supernatant from each well was removed to a new plate. The protein in the medium was precipitated with the addition of 8 μl 6N trichloroacetic acid. The plate was incubated at 60° C. for 30 minutes and then centrifugation at 2500 rpm for 10 minutes to remove sediments. 80 μl supernatants were carefully removed to a new clean plate and added with an equal volume of 2% 4-(Dimethylamino)benzaldehyde (D2004, Sigma) dissolved in glacial acetic acid. The absorbance at 480 nm wavelength derived from Kyn was measured using a PHERAstar FS plate reader (BMG LABTECH). The IC50 for each compound was derived from fitting the dose-response data to the four-parameter logistic model by using XLfit software (IDBS).

The test system of series [2] is plasma protein. Nature of the series: Plasma Protein Binding Assay (equilibrium dialysis). In kind it is in vitro ADME. To be noted: 50% plasma, Human plasma, 37° C., read-out: Plasma Protein Binding assay (fu %) Human. As to the method:
Plasma Protein Binding Assay:
To evaluate the plasma protein binding extent, the bound (fb) and unbound (fu) fractions of test compound will be determined in vitro by equilibrium dialysis approach, using a 96-well dialysis device (HT Dialysis, Gales Ferry, Conn., USA). The equilibrium dialysis will be conducted in duplicate. A hundred and fifty μL of 50% plasma spiked with the test compound (final concentration of 5 μM) will be added into the donor side and 150 μL of Phosphate Buffer (PB) (0.002% Tween-80) into the corresponding receiving side. The device will be then sealed with adhesive film and shook at 80 rpm in the water bath at 37° C. for 6 h. At the end of incubation, 10 μL plasma sample will be transferred from the donor side into a 1.5 mL microcentrifuge tube, added with 90 μL PB (0.002% Tween-80), vortexed well and proteins precipitated by acetonitrile containing internal standard (IS). Ninety μL of PB (0.002% Tween-80) sample will be transferred from the receiver side into a 1.5 mL microcentrifuge tube, added with 10 μL 50% blank plasma, vortexed well and proteins precipitated by acetonitrile containing IS.
For recovery check, […] of the donor side loading samples will be aliquoted into a 1.5 mL microcentrifuge tube (in duplicate), added with 90 μL PB (0.002% Tween-80), vortexed well and proteins precipitated by acetonitrile containing IS.
For plasma stability check, 10 μL of the donor side loading samples will be aliquoted into a 1.5 mL microcentrifuge tube (in duplicate), incubated in the water bath at 37° C. for 6 h, added with 90 μL PB (0.002% Tween-80) solution at the end of the incubation, vortexed well and proteins precipitated by acetonitrile containing IS.
Appropriate LC-MS/MS methods will be developed for the analysis of the test or control compounds in the incubates.
The unbound fraction (fu) of the test compound and positive control compounds in 50% plasma will be calculated using the following equations.
Where CR is the area ratio of the test compounds to the IS in the receiving side, CD is the area ratio of the test compound to the IS in the corresponding donor side and D is the dilution factor of plasma.
In general terms: Equilibrium dialysis compares concentrations on both sides of a semipermeable membrane.

Setting [3] is: HeLa cells, IDO1 induced by IFN-γ, 0.4 mM L-Trp, 48 hours incubation, Kyn absorbance at 480 nm, read-out: Cell-Based EC50 (nM) Hela IDO1.

T1 sequence (P14902 whole entry): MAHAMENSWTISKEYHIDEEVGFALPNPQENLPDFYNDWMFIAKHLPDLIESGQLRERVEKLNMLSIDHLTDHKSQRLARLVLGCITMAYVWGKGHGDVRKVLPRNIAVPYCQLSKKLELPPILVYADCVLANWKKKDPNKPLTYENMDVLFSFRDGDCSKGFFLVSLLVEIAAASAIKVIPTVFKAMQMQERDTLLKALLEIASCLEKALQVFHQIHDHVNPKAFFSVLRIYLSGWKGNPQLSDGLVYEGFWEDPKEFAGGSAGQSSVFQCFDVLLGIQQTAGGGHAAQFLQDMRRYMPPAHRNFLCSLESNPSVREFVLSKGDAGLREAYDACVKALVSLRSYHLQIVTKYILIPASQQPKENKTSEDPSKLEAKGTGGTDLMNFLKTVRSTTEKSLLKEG

In the case of `C[C@@H](c1nc2cc(C(=O)NC3CCC3)ccc2[nH]1)[C@H]1CC[C@@H](c2ccnc3ccc(F)cc32)CC1` [Example 4, N-cyclobutyl-2-((R)-1-((1s,4S)-4-(6-fluoroquinolin-4-yl)cyclohexyl)ethyl)-1H-benzo[d]imidazole-6-carboxamide], in series [1] (setting [3]), the 50% effective concentration (EC50) (as a rule, the midpoint of the concentration-response curve) worked out at 26.9 nM. In addition, in series [2], the fraction unbound at 6 h, 5 μM worked out at 0.002.
As for `C[C@H](c1nc2cnc(C(=O)NC3CC3)cc2[nH]1)[C@H]1CC[C@@H](c2ccnc3ccc(F)cc32)CC1` [Example 22a, N-cyclopropyl-2-((S)-1-((1s,4R)-4-(6-fluoroquinolin-4-yl)cyclohexyl)ethyl)-1H-imidazo[4,5-c]pyridine-6-carboxamide], the EC50 in series [1] (setting [3]) is 267 nM. Also, the fraction unbound at 6 h, 5 μM in series [2] worked out at 0.0056.
Take `C[C@@H](c1nc2cc(C(=O)NC3CC3)ncc2[nH]1)[C@H]1CC[C@@H](c2ccnc3ccc(F)cc32)CC1` [Example 22b, N-cyclopropyl-2-((R)-1-((1s,4s)-4-(6-fluoroquinolin-4-yl)cyclohexyl)ethyl)-3H-imidazo[4,5-c]pyridine-6-carboxamide]: in series [1] (setting [3]), the half-maximal effective concentration (EC50) stood at 0.96 nM. Besides, the fraction unbound at 6 h, 5 μM in series [2] was 0.0047.
For the compound `CNC(=O)c1cc2[nH]c([C@@H](C)[C@H]3CC[C@@H](c4ccnc5ccc(F)cc54)CC3)nc2cn1` [Example 23a, 2-((S)-1-((1s,4R)-4-(6-fluoroquinolin-4-yl)cyclohexyl)ethyl)-N-methyl-1H-imidazo[4,5-c]pyridine-6-carboxamide], in series [1] (setting [3]), the concentration for a half-maximal effect (EC50) is 223 nM. Moreover, in series [2], the fraction unbound at 6 h, 5 μM worked out at 0.0072.
Regarding `CNC(=O)c1cc2[nH]c([C@H](C)[C@H]3CC[C@@H](c4ccnc5ccc(F)cc54)CC3)nc2cn1` [Example 23b, 2-((R)-1-((1s,4S)-4-(6-fluoroquinolin-4-yl)cyclohexyl)ethyl)-N-methyl-1H-imidazo[4,5-c]pyridine-6-carboxamide], the EC50 in series [1] (setting [3]) came out at 3.83 nM. Also, the fraction unbound at 6 h, 5 μM in series [2] was 0.0053.
`CC(c1nc2cc3c(=O)[nH]cnc3cc2[nH]1)[C@H]1CC[C@@H](c2ccnc3ccc(F)cc32)CC1` (stereo partly drawn) [Example 25, 2-(1-((1s,4s)-4-(6-fluoroquinolin-4-yl)cyclohexyl)ethyl)-3,7-dihydro-8H-imidazo[4,5-g]quinazolin-8-one]: in series [1] (setting [3]), the EC50 came out at 82.4 nM.
Same read-out and setting: for `CCNC(=O)c1cc2nc([C@H](C)[C@H]3CC[C@@H](c4ccnc5ccc(F)cc54)CC3)[nH]c2cn1` [Example 26, N-ethyl-2-((R)-1-((1s,4S)-4-(6-fluoroquinolin-4-yl)cyclohexyl)ethyl)-3H-imidazo[4,5-c]pyridine-6-carboxamide] the value was 0.77 nM.
`C[C@@H](c1nc2cc(F)c(F)cc2[nH]1)[C@H]1CC[C@@H](c2ccnc3ccc(F)cc32)CC1` [Example 27b, 4-((1S,4s)-4-((R)-1-(5,6-difluoro-1H-benzo[d]imidazol-2-yl)ethyl)cyclohexyl)-6-fluoroquinoline, reference compound]: the EC50 in series [1] came out at 0.42 nM. In addition, in series [2], the fraction unbound at 6 h, 5 μM turned out to be 0.00034.
For the compound `COC(=O)c1ccc2[nH]c([C@H](C)[C@H]3CC[C@@H](c4ccnc5ccc(F)cc54)CC3)nc2c1` [Example 28b, methyl 2-((R)-1-((1s,4S)-4-(6-fluoroquinolin-4-yl)cyclohexyl)ethyl)-1H-benzo[d]imidazole-5-carboxylate, reference compound], in series [1] (setting [3]), the EC50 was 0.55 nM. For the same compound, the fraction unbound at 6 h, 5 μM in series [2] is 0.00067.
As for `C[C@@H](c1nc2c(F)c(F)c(F)cc2[nH]1)[C@H]1CC[C@@H](c2ccnc3ccc(F)cc32)CC1` [Example 29, 6-fluoro-4-((1S,4s)-4-((R)-1-(4,5,6-trifluoro-1H-benzo[d]imidazol-2-yl)ethyl)cyclohexyl)quinoline, reference compound], the concentration for a half-maximal effect (EC50) in series [1] (setting [3]) amounted to 0.85 nM. In series [2], the fraction unbound at 6 h, 5 μM came out at 0.0002.
